Columns and labels:
HDAC3 = HDAC3 (Homo sapiens, UniProt O15379); test: HDAC3 inhibitory activity (IC50); assay type: biochemical; conditions: Table 2; read-out: HDAC3
Procedure: (§1) HDAC inhibitor compounds designed and synthesized in accordance with the present invention were tested for their inhibitor activity against several different HDAC isoforms.

HDAC6 = target: T1, HDAC6 (Homo sapiens, UniProt Q9UBN7); test: HDAC6 inhibitory activity (IC50); assay type: biochemical; conditions: Table 2; read-out: HDAC6
T1 sequence (Q9UBN7 1-1215): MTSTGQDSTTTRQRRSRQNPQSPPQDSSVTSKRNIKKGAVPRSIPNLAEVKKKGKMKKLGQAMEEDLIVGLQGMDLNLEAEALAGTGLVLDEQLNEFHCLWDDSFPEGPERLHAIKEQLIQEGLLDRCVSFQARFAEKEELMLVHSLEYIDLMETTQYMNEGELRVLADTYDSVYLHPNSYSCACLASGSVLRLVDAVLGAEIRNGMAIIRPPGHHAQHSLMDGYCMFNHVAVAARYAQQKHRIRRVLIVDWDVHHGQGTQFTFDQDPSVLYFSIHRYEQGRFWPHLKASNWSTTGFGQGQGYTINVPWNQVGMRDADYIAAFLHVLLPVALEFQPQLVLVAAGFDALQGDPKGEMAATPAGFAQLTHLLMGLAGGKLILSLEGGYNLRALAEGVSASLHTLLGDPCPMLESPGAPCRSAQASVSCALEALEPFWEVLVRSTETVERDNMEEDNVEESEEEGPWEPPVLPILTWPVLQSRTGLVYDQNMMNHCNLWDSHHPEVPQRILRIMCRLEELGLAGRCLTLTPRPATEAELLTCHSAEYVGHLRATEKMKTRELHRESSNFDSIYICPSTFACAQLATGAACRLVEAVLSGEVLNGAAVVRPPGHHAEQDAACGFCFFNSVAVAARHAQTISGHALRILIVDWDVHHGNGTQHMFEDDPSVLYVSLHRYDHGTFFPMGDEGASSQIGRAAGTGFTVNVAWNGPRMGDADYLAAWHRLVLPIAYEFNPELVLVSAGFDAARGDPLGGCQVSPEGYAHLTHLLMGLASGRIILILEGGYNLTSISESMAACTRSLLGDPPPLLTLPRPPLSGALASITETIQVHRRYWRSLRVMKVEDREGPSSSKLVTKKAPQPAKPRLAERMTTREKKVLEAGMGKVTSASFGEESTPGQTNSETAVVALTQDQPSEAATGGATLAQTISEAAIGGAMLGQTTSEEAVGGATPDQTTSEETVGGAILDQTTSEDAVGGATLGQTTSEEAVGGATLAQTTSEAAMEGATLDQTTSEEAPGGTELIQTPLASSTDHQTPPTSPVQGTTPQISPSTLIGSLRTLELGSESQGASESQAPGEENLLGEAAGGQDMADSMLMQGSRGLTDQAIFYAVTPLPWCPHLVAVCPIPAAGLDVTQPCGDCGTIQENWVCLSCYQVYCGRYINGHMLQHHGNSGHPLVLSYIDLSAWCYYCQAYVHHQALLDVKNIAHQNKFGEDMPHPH
Procedure: as §1

HDAC2 = HDAC2 (Homo sapiens, UniProt Q92769); test: HDAC2 inhibitory activity (IC50); assay type: biochemical; conditions: Table 2; read-out: HDAC2
HDAC2, sequence (Q92769 whole entry): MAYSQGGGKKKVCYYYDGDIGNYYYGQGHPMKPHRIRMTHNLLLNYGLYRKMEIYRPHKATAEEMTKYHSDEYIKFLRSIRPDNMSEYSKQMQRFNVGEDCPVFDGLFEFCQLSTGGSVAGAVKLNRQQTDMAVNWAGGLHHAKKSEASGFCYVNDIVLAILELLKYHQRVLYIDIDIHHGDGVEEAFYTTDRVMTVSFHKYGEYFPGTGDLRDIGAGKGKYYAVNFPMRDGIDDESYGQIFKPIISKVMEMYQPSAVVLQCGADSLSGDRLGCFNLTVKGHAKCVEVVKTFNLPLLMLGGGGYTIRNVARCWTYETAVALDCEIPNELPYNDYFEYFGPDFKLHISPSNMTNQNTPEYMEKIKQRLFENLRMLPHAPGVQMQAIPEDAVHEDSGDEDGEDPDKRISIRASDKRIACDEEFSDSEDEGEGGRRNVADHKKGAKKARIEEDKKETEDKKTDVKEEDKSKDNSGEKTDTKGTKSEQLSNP
Procedure: as §1

HDAC1 = HDAC1 (Homo sapiens, UniProt Q13547); test: HDAC1 inhibitory activity (IC50); assay type: biochemical; conditions: Table 2; read-out: HDAC1
HDAC1, sequence (Q13547 whole entry): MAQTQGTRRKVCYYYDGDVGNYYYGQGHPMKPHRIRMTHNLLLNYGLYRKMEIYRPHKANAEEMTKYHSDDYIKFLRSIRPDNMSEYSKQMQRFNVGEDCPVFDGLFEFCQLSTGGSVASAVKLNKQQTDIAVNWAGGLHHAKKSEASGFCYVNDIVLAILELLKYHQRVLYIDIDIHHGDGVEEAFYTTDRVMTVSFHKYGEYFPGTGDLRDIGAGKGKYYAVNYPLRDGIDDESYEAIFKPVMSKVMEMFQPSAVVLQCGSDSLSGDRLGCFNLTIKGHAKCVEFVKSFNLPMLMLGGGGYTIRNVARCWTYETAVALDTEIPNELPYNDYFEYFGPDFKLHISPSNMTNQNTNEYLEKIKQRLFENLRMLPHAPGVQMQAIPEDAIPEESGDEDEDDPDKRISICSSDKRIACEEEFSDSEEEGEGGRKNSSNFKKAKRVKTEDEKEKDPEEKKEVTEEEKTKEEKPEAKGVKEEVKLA
Procedure: as §1

pSTAT3 (Tyr705) = test: Immunoblot of STAT3 phosphorylation in MM cells; assay type: cell-based, human
Procedure: MM cells were harvested and lysed using sodium dodecyl sulfate-polyacrylamide gel electrophoresis (SDS-PAGE) sample buffer containing 60 mM Tris-HCl, pH 6.8, 2% SDS, 10% glycerol, 0.005% bromophenol blue, 5 mM ethylenediaminetetraacetic acid, 5 mM NaF, 2 mM […], 1 mM phenylmethylsulfonyl fluoride (PMSF), 5 μg/mL leupeptin, and 5 μg/mL aprotinin; and then heated at 100° C. for 5 min. After the determination of protein concentration using DC protein assay (Bio-Rad, Hercules, Calif.), β-mercaptoethanol (β-ME) was added to the whole-cell lysates to a 2% final β-ME concentration. The whole-cell lysates were subjected to SDS-PAGE, transferred to nitrocellulose membranes (Bio-Rad, Hercules, Calif.) or polyvinylidene fluoride membranes (Millipore, Billerica, Mass.), and immunoblotted with anti-histone H3, -HDAC1, -HDAC2, -HDAC3, -Acetyl-histone H2A (Lysine 5) (Ac-H2AK5), -Acetyl-histone H2B (lysine 5) (Ac-H2 BK5), -Acetyl-histone H3 (lysine 9) (Ac-H3K9), -Acetyl-histone H4 (lysine 8) (Ac-H4K8), -glyceraldehyde-3-phosphate dehydrogenase (GAPDH), -poly (ADP-ribose) polymerase (PARP), -caspase-3, -caspase-8, -caspase-9, -Signal transducers and activators of transcription 3 (STAT3), -phospho-STAT3 (pSTAT3) (tyrosine 705), -pSTAT3 (serine 727), -p21, -Janus kinase 2 (JAK2), -acetylated-Lysine (Ac-K), and anti-phosphorylated-tyrosine antibodies (Abs; Cell Signaling Technology, Beverly, Mass.).
MM.1S, U266, and INA6 cells were cultured with DMSO control or LBH589 (50 and 100 nM) for 8 h.
MM.1S cells pretreated with or without 50 nM LBH589 for 8 hours were then treated with IL-6 (10 ng/mL) or BMSC culture supernatants (#1 and #2) for 15 minutes. Whole cell lysates were subjected to immunoblotting with anti-pSTAT3 (Tyr705) and STAT3 Abs.
In addition, INA-6 cells were cultured with DMSO control, LBH589 (50 nM), TSA (1 μM) or SAHA (2 μM) for 8 hours. Whole cell lysates were subjected to immunoblotting with anti-pSTAT3 (Tyr705), STAT3, and GAPDH Abs.
Whole cell lysates were subjected to immunoblotting with anti-pSTAT3 (Tyr705), -STAT3, -pERK1/2 (Thr202/204), and -ERK1/2 Abs (FIG. 6G).
See, e.g., Hideshima et al. Blood. 2006, 107:4053-4062. Since bortezomib upregulates activated STAT3 in head and neck squamous cell carcinoma (see, e.g., Li et al. Mol Cancer Ther 2009. 8:2211-2220), experiments were conducted to test whether bortezomib enhances p-STAT3 in MM cells. RPMI8226 cells were infected with Luc, HDAC1 (sh1), HDAC2 (sh1) or HDAC3 (sh1) shRNAs and then treated with or without bortezomib (5 nM) for 6 hours. Whole cell lysates were subjected to immunoblotting with anti-STAT3, -pSTAT3 (Tyr705), -pERK1/2 (Thr202/204) and -ERK1/2 Abs.

MM.1S cells = test: Immunoblot of histone and α-tubulin acetylation in MM.1S cells; assay type: cell-based, human; conditions: 12 h, Compound 10 10 and 20 μM
MM cell lines = test: Cell growth inhibition assay (MTT) in MM cell lines; assay type: cell-based, human; conditions: MM cell lines, 48 hours, MTT (FIG. 1A)
Procedure: To measure proliferation of MM cells, the rate of DNA synthesis was measured by ^3[H]-thymidine (Perkin-Elmer) uptake.
The growth inhibitory effect of Merck60 (HDACL, 2 inhibitor previously reported as compound #60 by Method et al. Bioorg. Med. Chem. Lett. 2008. 18(3):973-8) versus MS275 (HDAC1, 2, 3 inhibitor) was examined in MM cell lines using MTT assay. MM cells were cultured with Merck60 (left panel) or MS275 (right panel) for 48 hours. Cell growth was assessed by MTT assay. All experiments were performed 3 times in quadruplicate. Data represent mean±SD.
Cell growth was assessed by MTT assay. All experiments were performed 3 times in quadruplicate. Data represent mean±SD.

RPMI8226 cells = test: Combination with bortezomib, MTT cytotoxicity, combination index; assay type: cell-based, human; conditions: RPMI8226, MTT, 24 h
Procedure: The combined effect of drugs was analyzed by isobologram analysis using the Compusyn software program (ComboSyn, Inc.); a combination index (CI)<1 is indicative of a synergistic effect.
All experiments were performed 3 times in quadruplicate. Data represent mean±SD (FIG. 7D).

[1] = INA-6 cells, 8 hours, TSA 1 μM, SAHA 2 μM (FIG. 4C)

HDAC3, sequence (O15379 whole entry): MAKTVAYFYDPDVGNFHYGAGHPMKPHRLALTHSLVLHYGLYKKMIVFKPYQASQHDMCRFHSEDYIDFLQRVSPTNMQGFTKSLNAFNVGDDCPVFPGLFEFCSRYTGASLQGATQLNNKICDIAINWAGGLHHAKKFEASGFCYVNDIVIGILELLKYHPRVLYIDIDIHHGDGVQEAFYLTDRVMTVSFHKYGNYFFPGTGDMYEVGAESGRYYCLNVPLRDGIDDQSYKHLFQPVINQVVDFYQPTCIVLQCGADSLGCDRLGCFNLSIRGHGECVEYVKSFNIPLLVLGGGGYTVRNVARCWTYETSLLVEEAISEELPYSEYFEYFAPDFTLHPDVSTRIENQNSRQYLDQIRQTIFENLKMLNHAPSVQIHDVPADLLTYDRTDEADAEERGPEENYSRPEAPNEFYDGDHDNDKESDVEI
HDAC3, sequence (Q9Y618 395-489 partner limits assumed): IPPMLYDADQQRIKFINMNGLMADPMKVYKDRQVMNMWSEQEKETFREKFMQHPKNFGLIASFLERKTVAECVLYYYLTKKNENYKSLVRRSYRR

Row | IC50 (HDAC3) [nM] | IC50 (HDAC6) [µM] | IC50 (HDAC2) [nM] | IC50 (HDAC1) [µM] | SMILES | other results
1 | 3620 | > 100 | 4110 | 12.4 | O=C(Nc1ccccc1O)c1ccccn1 [Compound 7] | 
2 | 3320 | > 100 | 3670 | 10.5 | O=C(Nc1ccccc1O)c1cccnc1 [Compound 5] | 
3 | 346 | > 100 | 2360 |  | Nc1ccccc1NC(=O)c1ccccn1 [Compound 3] | 
4 |  | 74.3 |  |  | Nc1ccccc1NC(=O)c1cccnc1 [Compound 1] | 
5 | 843 | > 100 | 60.4 | < 0.01 | CC(=O)Nc1ccc(C(=O)Nc2cc(-c3ccccc3)ccc2N)cc1 [Compound 11] | 
6 | 368 | > 100 | 2340 | 2.82 | Nc1ccccc1NC(=O)c1ccncc1 [Compound 2] | 
7 | 213 | > 100 | 1360 | 1.39 | Cc1ccc(C(=O)Nc2ccccc2N)cn1 [Compound 17] | 
8 |  |  |  |  | Cc1[nH]c2ccccc2c1CCNCc1ccc(/C=C/C(=O)NO)cc1 [LBH589, reference compound] | P-STAT3 upregulated by IL-6 or BMSC culture supernatants (pSTAT3 (Tyr705); MM.1S, 50 nM pretreatment 8 hours, IL-6 10 ng/mL or supernatants 15 minutes (FIG. 4B)): blocked; p-STAT3 (pSTAT3 (Tyr705); MM.1S, U266, INA-6 cells, 50 and 100 nM, 8 h (FIG. 4A)): significantly inhibited; histone acetylation (MM.1S cells; LBH589 50 and 100 nM (FIG. 6F left)): significantly triggered both histone and α-tubulin acetylation; α-tubulin acetylation (biomarker of HDAC6 inhibition) (MM.1S cells; LBH589 50 and 100 nM (FIG. 6F right)): significantly triggered both histone and α-tubulin acetylation
9 | 70.2 | > 100 | 760 | 1.23 | CC(=O)Nc1ccc(C(=O)Nc2ccc(F)cc2N)cc1 [Compound 12] | 
10 | 1990 | > 100 | 1910 | 5.77 | O=C(Nc1ccccc1O)c1ccncc1 [Compound 6] | 
11 | 296 | > 100 | 2320 | 4.12 | Nc1cc(F)ccc1NC(=O)c1cnccn1 [Compound 14] | 
12 | 1960 | > 100 | 13400 | 27 | Nc1cc(F)ccc1NC(=O)c1cccnc1 [Compound 13] | 
13 |  |  |  |  | O=C(CCCCCCC(=O)Nc1ccccc1)NO [SAHA, suberoylanilide hydroxamic acid] | p-STAT3 (pSTAT3 (Tyr705); [1]): downregulated p-STAT3
14 | 2350 | > 100 | 5520 | 13.7 | O=C(Nc1ccc(F)cc1O)c1cccnc1 [Compound 15] | 
15 | 169 | > 100 | 1210 | 0.735 | Nc1ccccc1NC(=O)c1cnc(Nc2ccccc2)nc1 [Compound 8] | 
16 | 280 | > 100 | 2590 | 3.28 | Nc1ccccc1NC(=O)c1ccc(Cl)nc1 [Compound 9] | 
17 |  |  |  |  | CC(=O)Nc1ccc(C(=O)Nc2cc(-c3cccs3)ccc2N)cc1 [Merck60, 4-acetamido-N-(2-amino-5-(thiophen-2-yl)phenyl)benzamide] | MM cell growth inhibition (MM cell lines): only a modest growth inhibition effect; CI (combination index) (RPMI8226 cells; HDAC inhibitor 1 μM + bortezomib 2 nM): 1.95; CI (combination index) (RPMI8226 cells; HDAC inhibitor 1 μM + bortezomib 3 nM): 1.06; CI (combination index) (RPMI8226 cells; HDAC inhibitor 1 μM + bortezomib 4 nM): 1.19; CI (combination index) (RPMI8226 cells; HDAC inhibitor 2 μM + bortezomib 2 nM): 1.54; CI (combination index) (RPMI8226 cells; HDAC inhibitor 2 μM + bortezomib 3 nM): 1.21; CI (combination index) (RPMI8226 cells; HDAC inhibitor 2 μM + bortezomib 4 nM): 1.34; CI (combination index) (RPMI8226 cells; HDAC inhibitor 3 μM + bortezomib 2 nM): 1.45; CI (combination index) (RPMI8226 cells; HDAC inhibitor 3 μM + bortezomib 3 nM): 1.4; CI (combination index) (RPMI8226 cells; HDAC inhibitor 3 μM + bortezomib 4 nM): 1.55
18 |  |  |  |  | CC(/C=C/C(=O)NO)=C\[C@@H](C)C(=O)c1ccc(N(C)C)cc1 [TSA] | p-STAT3 (pSTAT3 (Tyr705); [1]): downregulated p-STAT3

Source: US9988343B2, “Inhibitors of histone deacetylase” (Dana-Farber Cancer Institute, Inc., priority 2013, dated 2018)
